Results from patent US20050250175A1, “Bacterial cell wall skeleton component preparaion” (priority 2002, published 2005).

Experiment: Viscosity of paste comprising BCG-CWS, co-axial bicylindrical viscometer
Format: physicochemical
Conditions: unit not given
Procedure: “Viscosity” as used herein means a value determined by dynamic viscoelasticity measurement, for example, values obtained using a co-axial bicylindrical viscometer. In the present invention, viscosity may be measured using a co-axial bicylindrical viscometer manufactured by Rheology Co., Ltd (Model MR-300, Soliquid meter) at 25° C. under nitrogen atmosphere. One poise represents 0.1 Pa·s (pascal.sec).
The viscosity of the paste was measured at 25° C. using a co-axial bicylindrical viscometer manufactured by Rheology Co., Ltd (Model MR-300, Soliquid meter). The viscosity was measured to be 0.545 poise.

For `CC(C)CCCC(C)CCCC(C)CCCCC(C)CCCC(C)CCCC(C)C` (stereo not shown) [squalane], the viscosity was 0.236.
